Assays:
[1] = tested on: kochia; test: Test A pre-/postemergence herbicide test; assay type: in vivo, Kochia scoparia; conditions: for Plant response rating, Kochia: 125 g ai/ha; for Kochia plant response rating: 500 g ai/ha
How it was run: (§1)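 Both application timings used compounds in a non-phytotoxic solvent plus surfactant. Pre-emergence: soil sprayed directly after seeding into loam/sand. Post-emergence: foliage of 2–10 cm seedlings (1–2 leaves) sprayed. Injury rated ~10 days later, 0–100.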

[2] = tested on: sedge, umbrella; test: Test B flooded paddy test; assay type: in vivo, Cyperus difformis; conditions: 500 g ai/ha, Flood; scale of 0 to 100 where 0 is no effect and 100 is complete control
How it was run: (§2)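 Plants were grown to the 2-leaf stage, then pots were flooded to 3 cm above the soil and compound was applied directly into the paddy water, with that depth held throughout. After 13 to 15 days in a greenhouse, injury was rated visually against untreated controls on a 0 to 100 scale (100 = complete control).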

[3] = tested on: barnyardgrass; test: Test A pre-/postemergence herbicide test; assay type: in vivo, Echinochloa crus-galli
How it was run: as §1

[4] = tested on: barnyardgrass; test: Test B flooded paddy test; assay type: in vivo, Echinochloa crus-galli; conditions: 500 g ai/ha, Flood; scale of 0 to 100 where 0 is no effect and 100 is complete control
How it was run: as §2

[5] = tested on: rice; test: Test B flooded paddy test; assay type: in vivo, Oryza sativa; conditions: 500 g ai/ha, Flood; scale of 0 to 100 where 0 is no effect and 100 is complete control
How it was run: as §2

[6] = tested on: corn; test: Test A pre-/postemergence herbicide test; assay type: in vivo, Zea mays; conditions: Postemergence
How it was run: as §1

[7] = tested on: galium; test: Test A postemergence herbicide test; assay type: in vivo, Galium aparine; conditions: 125 g ai/ha, visual rating on 0 to 100 scale (0 no effect, 100 complete control), approx. 10 days
How it was run: (§3)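 Ratings compare treated with untreated plants roughly 10 days after a postemergence application made at the one- to two-leaf stage. Scoring uses 0–100, where 0 means no effect and 100 complete control.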

[8] = tested on: ducksalad; test: Test B flooded paddy test; assay type: in vivo, Heteranthera limosa; conditions: 500 g ai/ha, Flood; scale of 0 to 100 where 0 is no effect and 100 is complete control
How it was run: as §2

[9] = tested on: blackgrass; test: Test A postemergence herbicide test; assay type: in vivo, Alopecurus myosuroides
How it was run: as §3

[10] = tested on: pigweed; test: Test A pre-/postemergence herbicide test; assay type: in vivo, Amaranthus retroflexus; conditions: for Plant response rating, Pigweed: 125 g ai/ha; for Pigweed plant response rating: 500 g ai/ha
How it was run: as §1

[11] = tested on: ryegrass, Italian; test: Test A pre-/postemergence herbicide test; assay type: in vivo, Lolium multiflorum; conditions: for Plant response rating, Ryegrass, Italian: 125 g ai/ha; for Ryegrass, Italian plant response rating: 500 g ai/ha
How it was run: as §1

[12] = tested on: wheat; test: Test A pre-/postemergence herbicide test; assay type: in vivo, Triticum aestivum; conditions: Postemergence, 125 g ai/ha; visual rating on 0 to 100 scale (0 no effect, 100 complete control), approx. 10 days
How it was run: as §1

[13] = tested on: ragweed; test: Test A pre-/postemergence herbicide test; assay type: in vivo, Ambrosia elatior; conditions: for Plant response rating, Ragweed: 125 g ai/ha; for Ragweed plant response rating: 500 g ai/ha
How it was run: as §1

[14] = tested on: giant foxtail; test: Test A pre-/postemergence herbicide test; assay type: in vivo, Setaria faberii
How it was run: as §1

[15] = Postemergence, visual rating on 0 to 100 scale (0 no effect, 100 complete control), approx. 10 days
[16] = Preemergence, 0 to 100 scale where 0 is no effect and 100 is complete control
[17] = Preemergence, visual rating on 0 to 100 scale (0 no effect, 100 complete control)
[18] = Postemergence, 125 g ai/ha, visual rating on 0 to 100 scale (0 no effect, 100 complete control), approx. 10 days
[19] = Postemergence, 500 g ai/ha, 0 to 100 scale (0 no effect, 100 complete control)
[20] = Preemergence, 125 g ai/ha, 0 to 100 scale where 0 is no effect and 100 is complete control
[21] = Preemergence, 500 g ai/ha, visual rating on 0 to 100 scale (0 no effect, 100 complete control)
[22] = 125 g ai/ha, visual rating on 0 to 100 scale (0 no effect, 100 complete control), approx. 10 days
[23] = 500 g ai/ha, 0 to 100 scale (0 no effect, 100 complete control)

O=C1NCC(c2ccc(Br)c(Br)c2)C1C(=O)Nc1ccccc1F (stereo not drawn) [Compound 339]
Plant response rating, Kochia [1, 15]: 0
Plant response rating, Kochia [1, 16]: 0
Kochia plant response rating [1, 17]: 0
Plant response rating, Sedge, Umbrella [2]: 0
Plant response rating, Barnyardgrass [3, 18]: 40
Plant response rating, Barnyardgrass [3, 19]: 60
Plant response rating, Barnyardgrass [3, 20]: 60
Barnyardgrass plant response rating [3, 21]: 80
Plant response rating, Barnyardgrass [4]: 40
Plant response rating, Rice [5]: 0
Plant response rating, Corn [6, 22]: 0
Plant response rating, Corn [6, 23]: 0
Plant response rating, Galium [7]: 0
Plant response rating, Ducksalad [8]: 65
Plant response rating, Blackgrass [9, 22]: 0
Plant response rating, Blackgrass [9, 23]: 0
Plant response rating, Pigweed [10, 15]: 0
Plant response rating, Pigweed [10, 16]: 0
Pigweed plant response rating [10, 17]: 0
Plant response rating, Ryegrass, Italian [11, 15]: 0
Plant response rating, Ryegrass, Italian [11, 16]: 0
Ryegrass, Italian plant response rating [11, 17]: 20
Plant response rating, Wheat [12]: 0
Plant response rating, Ragweed [13, 15]: 0
Plant response rating, Ragweed [13, 16]: 0
Ragweed plant response rating [13, 17]: 0
Plant response rating, Foxtail, Giant [14, 18]: 60
Plant response rating, Foxtail, Giant [14, 19]: 60
Plant response rating, Foxtail, Giant [14, 20]: 70
Foxtail, Giant plant response rating [14, 21]: 80

O=C1NCC(c2ccc(Br)c(Br)c2)C1C(=O)Nc1ccc(F)cc1F (stereo not drawn) [Compound 340]
Plant response rating, Kochia [1, 15]: 0
Plant response rating, Kochia [1, 16]: 0
Kochia plant response rating [1, 17]: 0
Plant response rating, Sedge, Umbrella [2]: 0
Plant response rating, Barnyardgrass [3, 18]: 30
Plant response rating, Barnyardgrass [3, 19]: 50
Plant response rating, Barnyardgrass [3, 20]: 60
Barnyardgrass plant response rating [3, 21]: 80
Plant response rating, Barnyardgrass [4]: 0
Plant response rating, Rice [5]: 0
Plant response rating, Corn [6, 22]: 0
Plant response rating, Corn [6, 23]: 0
Plant response rating, Galium [7]: 0
Plant response rating, Ducksalad [8]: 50
Plant response rating, Blackgrass [9, 22]: 0
Plant response rating, Blackgrass [9, 23]: 20
Plant response rating, Pigweed [10, 15]: 0
Plant response rating, Pigweed [10, 16]: 0
Pigweed plant response rating [10, 17]: 0
Plant response rating, Ryegrass, Italian [11, 15]: 0
Plant response rating, Ryegrass, Italian [11, 16]: 0
Ryegrass, Italian plant response rating [11, 17]: 20
Plant response rating, Wheat [12]: 0
Plant response rating, Ragweed [13, 15]: 0
Plant response rating, Ragweed [13, 16]: 0
Ragweed plant response rating [13, 17]: 0
Plant response rating, Foxtail, Giant [14, 18]: 30
Plant response rating, Foxtail, Giant [14, 19]: 90
Plant response rating, Foxtail, Giant [14, 20]: 80
Foxtail, Giant plant response rating [14, 21]: 90

O=C1NCC(c2ccc(Br)c(Br)c2)C1C(=O)Nc1ccc(F)c(F)c1F (stereo not drawn) [Compound 342]
Plant response rating, Kochia [1, 15]: 20
Plant response rating, Kochia [1, 16]: 0
Kochia plant response rating [1, 17]: 0
Plant response rating, Sedge, Umbrella [2]: 0
Plant response rating, Barnyardgrass [3, 18]: 30
Plant response rating, Barnyardgrass [3, 19]: 60
Plant response rating, Barnyardgrass [3, 20]: 50
Barnyardgrass plant response rating [3, 21]: 80
Plant response rating, Barnyardgrass [4]: 0
Plant response rating, Rice [5]: 0
Plant response rating, Corn [6, 22]: 0
Plant response rating, Corn [6, 23]: 40
Plant response rating, Galium [7]: 0
Plant response rating, Ducksalad [8]: 0
Plant response rating, Blackgrass [9, 22]: 0
Plant response rating, Blackgrass [9, 23]: 0
Plant response rating, Pigweed [10, 15]: 0
Plant response rating, Pigweed [10, 16]: 0
Pigweed plant response rating [10, 17]: 50
Plant response rating, Ryegrass, Italian [11, 15]: 0
Plant response rating, Ryegrass, Italian [11, 16]: 0
Ryegrass, Italian plant response rating [11, 17]: 20
Plant response rating, Wheat [12]: 0
Plant response rating, Ragweed [13, 15]: 0
Plant response rating, Ragweed [13, 16]: 0
Ragweed plant response rating [13, 17]: 0
Plant response rating, Foxtail, Giant [14, 18]: 40
Plant response rating, Foxtail, Giant [14, 19]: 50
Plant response rating, Foxtail, Giant [14, 20]: 70
Foxtail, Giant plant response rating [14, 21]: 90

O=C1NCC(c2ccc(Br)c(Br)c2)C1C(=O)Nc1ccccc1Cl (stereo not drawn) [Compound 343]
Plant response rating, Kochia [1, 15]: 0
Plant response rating, Kochia [1, 16]: 0
Kochia plant response rating [1, 17]: 0
Plant response rating, Sedge, Umbrella [2]: 0
Plant response rating, Barnyardgrass [3, 18]: 0
Plant response rating, Barnyardgrass [3, 19]: 30
Plant response rating, Barnyardgrass [3, 20]: 20
Barnyardgrass plant response rating [3, 21]: 80
Plant response rating, Barnyardgrass [4]: 0
Plant response rating, Rice [5]: 0
Plant response rating, Corn [6, 22]: 0
Plant response rating, Corn [6, 23]: 0
Plant response rating, Galium [7]: 0
Plant response rating, Ducksalad [8]: 0
Plant response rating, Blackgrass [9, 22]: 0
Plant response rating, Blackgrass [9, 23]: 0
Plant response rating, Pigweed [10, 15]: 0
Plant response rating, Pigweed [10, 16]: 0
Pigweed plant response rating [10, 17]: 0
Plant response rating, Ryegrass, Italian [11, 15]: 0
Plant response rating, Ryegrass, Italian [11, 16]: 0
Ryegrass, Italian plant response rating [11, 17]: 0
Plant response rating, Wheat [12]: 0
Plant response rating, Ragweed [13, 15]: 0
Plant response rating, Ragweed [13, 16]: 0
Ragweed plant response rating [13, 17]: 0
Plant response rating, Foxtail, Giant [14, 18]: 30
Plant response rating, Foxtail, Giant [14, 19]: 60
Plant response rating, Foxtail, Giant [14, 20]: 60
Foxtail, Giant plant response rating [14, 21]: 80

Reference: patent publication US10294202B2, “Pyrrolidinones as herbicides” (FMC Corporation, priority 2013, dated 2019)
